Assay results: patent US12344613B2, “EGFR inhibitor for the treatment of cancer” (Hoffmann-La Roche Inc., priority 2019, dated 2025)

Biological target: T1, EGFR TMLRCS (BaF3-TMLRCS cell line) (Homo sapiens, UniProt P00533, C797S/L858R/T790M)
T1 construct: host or cells: Ba/F3 (BaF3-TMLRCS), maintained under puromycin selection
Assay: HTRF Phospho EGFR TMLRCS Assay (Cellular)
Type: cell-based
Details: BaF3-TMLRCS cells, 4 hours incubation
Protocol: HTRF Phospho EGFR TMLRCS Assay (Cellular)
BaF3-TMLRCS cell line were obtained from Crownbio (San Diego, CA, USA). Cells were maintained at 37° C., 5% CO2 in RPMI ATCC (Gibco 31870)+2 mM Glutamine+0.5 μg/ml Puromycin supplemented with 10% fetal bovine serum (FBS) (Gibco).
Cells are transferred as above to Greiner Bio-One, Nr. 784-08 micro-titerplate at 20000 cells/well in 12.5 μl of growth medium/well after the plates had been pre-filled with 12.5 nl of DMSO solutions of the to be tested compounds (in dose response) or DMSO only. After spinning the plates at 300×g for 30 seconds the cells were incubated for 4 hours at 37 C, 5% CO2, 95% humidity. The cells were lysed by adding to the compound mix 4 μl/well of the supplemented lysis buffer (Cis-bio, Phospho-EGFR HTRF kit, 64EG1PEH), followed by incubation for 30 min at room temperature with shaking (400 rpm). The plates were then frozen and stored overnight at −80 C. […] The lidded plates were then incubated for 4 h at room temperature before reading the fluorescence emission at 616 and 665 nm using an Envision reader (Perkin Elmer). Data was analyzed in similar fashion as above using the normalized ratio of the 665 to 616 signals multiplied by 10000.

T1 sequence (P00533 25-1210 T790M/C797S/L858R): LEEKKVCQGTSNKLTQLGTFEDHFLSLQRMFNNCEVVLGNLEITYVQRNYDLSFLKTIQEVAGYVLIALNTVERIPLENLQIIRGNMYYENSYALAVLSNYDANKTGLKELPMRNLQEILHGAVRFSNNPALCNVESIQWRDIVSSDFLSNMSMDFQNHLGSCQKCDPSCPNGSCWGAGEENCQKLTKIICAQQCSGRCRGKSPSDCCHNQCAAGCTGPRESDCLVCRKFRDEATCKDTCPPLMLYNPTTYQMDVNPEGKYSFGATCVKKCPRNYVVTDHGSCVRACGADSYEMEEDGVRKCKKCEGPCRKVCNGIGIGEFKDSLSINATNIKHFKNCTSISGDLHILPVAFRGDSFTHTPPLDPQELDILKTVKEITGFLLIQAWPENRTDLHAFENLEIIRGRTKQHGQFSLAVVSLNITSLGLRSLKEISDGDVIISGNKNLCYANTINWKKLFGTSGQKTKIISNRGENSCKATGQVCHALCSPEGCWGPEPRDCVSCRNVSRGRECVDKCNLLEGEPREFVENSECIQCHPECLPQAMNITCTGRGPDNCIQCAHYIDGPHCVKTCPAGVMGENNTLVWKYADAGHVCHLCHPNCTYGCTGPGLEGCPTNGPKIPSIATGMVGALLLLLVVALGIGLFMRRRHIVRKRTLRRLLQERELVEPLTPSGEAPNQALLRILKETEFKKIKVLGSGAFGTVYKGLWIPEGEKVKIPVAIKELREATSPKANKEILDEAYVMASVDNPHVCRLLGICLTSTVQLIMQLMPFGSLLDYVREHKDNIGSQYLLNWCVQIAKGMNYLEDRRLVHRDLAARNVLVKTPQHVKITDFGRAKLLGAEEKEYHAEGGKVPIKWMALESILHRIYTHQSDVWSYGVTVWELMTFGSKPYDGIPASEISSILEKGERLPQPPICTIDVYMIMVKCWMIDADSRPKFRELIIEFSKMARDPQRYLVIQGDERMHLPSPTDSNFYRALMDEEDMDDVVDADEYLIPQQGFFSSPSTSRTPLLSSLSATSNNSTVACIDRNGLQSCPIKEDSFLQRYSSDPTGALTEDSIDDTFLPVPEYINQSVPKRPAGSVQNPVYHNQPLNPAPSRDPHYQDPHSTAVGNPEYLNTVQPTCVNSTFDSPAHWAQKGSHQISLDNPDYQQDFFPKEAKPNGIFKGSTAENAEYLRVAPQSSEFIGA

SMILES: O=C(Nc1nccs1)C(c1ncn2c1C[C@@H](F)C2)n1cc2c(Cl)cc(-c3ccc(N4CCOCC4)cc3)c(Cl)c2n1 (stereo partly drawn) [Example 1, 2-[4,7-Dichloro-6-(4-morpholinophenyl)indazol-2-yl]-2-[(6R)-6-fluoro-6,7-dihydro-5H-pyrrolo[1,2-c]imidazol-1-yl]-N-thiazol-2-yl-acetamide]
- IC50: 5 nM
